From PubChem BioAssay AID330 (DTP/NCI, 2004)
Where “and” joins values, the source holds several entries; their conditions need not be identical. Equal entries are not always repeated. Toxic doses and inconclusive results are not listed.

Test system: P388 leukemia ip, CD2F1 mice, survival T/C
Assay: NCI In Vivo Anticancer Drug Screen. Data for tumor model P388 Leukemia (intraperitoneal) in CD2F1 (CDF1) mice
Details: endpoint: median survival time, higher = longer survival
Summary of the method: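 Mice carrying the transplanted tumor received test compound or vehicle. Survival was recorded in each group, and the value is the treated-group measurement divided by that of the vehicle-treated control group.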

[1] = dose: 50.0 mg/kg/injection, schedule: Q01DX005 (ip), vehicle: Klucel (hydroxypropylcellulose) (HPC)
[2] = dose: 100.0 mg/kg/injection, schedule: Q01DX005 (ip), vehicle: Klucel (hydroxypropylcellulose) (HPC)
[3] = dose: 200.0 mg/kg/injection, schedule: Q01DX005 (ip), vehicle: Klucel (hydroxypropylcellulose) (HPC)
[4] = dose: 60.0 mg/kg/injection, schedule: Q01DX005 (ip), vehicle: saline with Tween-80
[5] = dose: 120.0 mg/kg/injection, schedule: Q01DX005 (ip), vehicle: saline with Tween-80
[6] = dose: 240.0 mg/kg/injection, schedule: Q01DX005 (ip), vehicle: saline with Tween-80
[7] = dose: 12.5 mg/kg/injection, schedule: Q01DX009 (ip), vehicle: Klucel (hydroxypropylcellulose) (HPC)
[8] = dose: 50.0 mg/kg/injection, schedule: Q01DX005 (ip), vehicle: saline with Tween-80
[9] = dose: 60.0 mg/kg/injection, schedule: Q01DX005 (ip), vehicle: saline
[10] = dose: 120.0 mg/kg/injection, schedule: Q01DX005 (ip), vehicle: saline
[11] = dose: 240.0 mg/kg/injection, schedule: Q01DX005 (ip), vehicle: saline
[12] = dose: 25.0 mg/kg/injection, schedule: Q01DX009 (ip), vehicle: Klucel (hydroxypropylcellulose) (HPC)
[13] = dose: 50.0 mg/kg/injection, schedule: Q01DX009 (ip), vehicle: Klucel (hydroxypropylcellulose) (HPC)
[14] = dose: 100.0 mg/kg/injection, schedule: Q01DX009 (ip), vehicle: Klucel (hydroxypropylcellulose) (HPC)
[15] = dose: 200.0 mg/kg/injection, schedule: Q01DX009 (ip), vehicle: Klucel (hydroxypropylcellulose) (HPC)

SMILES: COc1ccccc1NC(=S)N/N=C\c1nc2ccccc2c2ccccc12
- T/C (dose: 75.0 mg/kg/injection, schedule: Q04DX002 (ip), vehicle: Klucel (hydroxypropylcellulose) (HPC)): 99 % of control
- T/C (dose: 150.0 mg/kg/injection, schedule: Q04DX002 (ip), vehicle: Klucel (hydroxypropylcellulose) (HPC)): 96 % of control
- T/C (dose: 300.0 mg/kg/injection, schedule: Q04DX002 (ip), vehicle: Klucel (hydroxypropylcellulose) (HPC)): 96 % of control

SMILES: Cn1c(N)c(C(=O)/C=C/c2ccccc2)c(=O)[nH]c1=O
- T/C [1]: 95 % of control
- T/C [2]: 88 % of control
- T/C [3]: 88 % of control

SMILES: CC(C)(S)CN
- T/C (dose: 100.0 mg/kg/injection, schedule: Q01DX001 (ip), vehicle: saline): 104 % of control
- T/C (dose: 200.0 mg/kg/injection, schedule: Q01DX001 (ip), vehicle: saline): 108 % of control
- T/C (dose: 400.0 mg/kg/injection, schedule: Q01DX001 (ip), vehicle: saline): 103 % of control

SMILES: CSCCCNCc1ccc([N+](=O)[O-])cc1
- T/C (dose: 50.0 mg/kg/injection, schedule: Q01DX005 (ip), vehicle: saline): 97 % of control
- T/C (dose: 100.0 mg/kg/injection, schedule: Q01DX005 (ip), vehicle: saline): 111 % of control

SMILES: COc1ccc(-c2cc3c(c4cc(OC)ccc24)C(=O)OC3=O)cc1
- T/C [4]: 93 % of control
- T/C [5]: 97 % of control
- T/C [6]: 98 % of control

SMILES: CCC(/C=C/c1ccc(C)cc1)=N\NC(=O)c1ccccc1
- T/C [4]: 98 % of control
- T/C [5]: 89 % of control
- T/C [6]: 90 % of control

SMILES: CCC[P+](C)(CCC#N)c1ccccc1 (centres undefined)
- T/C [7]: 108 % of control

SMILES: O=C1CSC(C2CC=CCC2)N1c1nncs1 (centres undefined)
- T/C [8]: 100 % of control
- T/C (dose: 100.0 mg/kg/injection, schedule: Q01DX005 (ip), vehicle: saline with Tween-80): 91 % of control
- T/C (dose: 200.0 mg/kg/injection, schedule: Q01DX005 (ip), vehicle: saline with Tween-80): 90 % of control

SMILES: O=C(CS(=O)(=O)O)c1ccccc1
- T/C (dose: 25.0 mg/kg/injection, schedule: Q04DX002 (ip), vehicle: saline with Tween-80): 100 % of control
- T/C (dose: 50.0 mg/kg/injection, schedule: Q04DX002 (ip), vehicle: saline with Tween-80): 106 % of control
- T/C (dose: 100.0 mg/kg/injection, schedule: Q04DX002 (ip), vehicle: saline with Tween-80): 94 % of control and 97 % of control

SMILES: O=C(O)C(Cc1c[nH]c2ccc(O)cc12)NCC1(O)OCC(O)C(O)C1O (centres undefined)
- T/C [9]: 97 % of control
- T/C [10]: 99 % of control
- T/C [11]: 98 % of control

SMILES: CCOC(=O)C1=C(C)OC(N)=C(C#N)C12C(=O)N(C)C(=O)c1ccccc12 (centres undefined)
- T/C [1]: 101 % of control
- T/C [2]: 103 % of control
- T/C [3]: 96 % of control

SMILES: CC(C)C(O)C1CCOS1(=O)=O (centres undefined)
- T/C (dose: 100.0 mg/kg/injection, schedule: Q04DX003 (ip), vehicle: saline): 95 % of control
- T/C (dose: 200.0 mg/kg/injection, schedule: Q04DX003 (ip), vehicle: saline): 101 % of control

SMILES: CN(C)c1ccsc(=S)c1
- T/C (dose: 6.25 mg/kg/injection, schedule: Q01DX005 (ip), vehicle: Klucel (hydroxypropylcellulose) (HPC)): 102 % of control
- T/C (dose: 12.5 mg/kg/injection, schedule: Q01DX005 (ip), vehicle: Klucel (hydroxypropylcellulose) (HPC)): 101 % of control
- T/C (dose: 25.0 mg/kg/injection, schedule: Q01DX005 (ip), vehicle: Klucel (hydroxypropylcellulose) (HPC)): 105 % of control
- T/C [1]: 98 % of control

SMILES: CC1(C)C2CC[C@@]1(CS(=O)(=O)N(CCCl)CCCl)C(=O)C2
- T/C (dose: 30.0 mg/kg/injection, schedule: Q01DX005 (ip), vehicle: saline): 99 % of control
- T/C [9]: 98 % of control
- T/C [10]: 96 % of control
- T/C [11]: 96 % of control

SMILES: CC(C)=CCC[C@](C)(O[C@@H]1O[C@H](CO)[C@@H](O)[C@H](O)[C@H]1O)[C@H]1CC[C@]2(C)[C@@H]1[C@H](O)C[C@@H]1[C@@]3(C)CC[C@H](O)C(C)(C)[C@@H]3[C@@H](O[C@@H]3O[C@H](CO)[C@@H](O)[C@H](O)[C@H]3O)C[C@]12C
- T/C (dose: 50.0 mg/kg/injection, schedule: Q01DX009 (ip), vehicle: saline): 105 % of control
- T/C (dose: 100.0 mg/kg/injection, schedule: Q01DX009 (ip), vehicle: saline): 106 % of control
- T/C (dose: 200.0 mg/kg/injection, schedule: Q01DX009 (ip), vehicle: saline): 106 % of control

SMILES: CCCNc1nc(C)nc2[nH]cc(C)c12
- T/C [1]: 100 % of control
- T/C [2]: 102 % of control

SMILES: COc1cc2c[n+](C)c3ccccc3c2cc1OC
- T/C (dose: 12.5 mg/kg/injection, schedule: Q01DX009 (ip), vehicle: water): 112 % of control and 115 % of control
- T/C (dose: 25.0 mg/kg/injection, schedule: Q01DX009 (ip), vehicle: water): 124 % of control
- T/C (dose: 100.0 mg/kg/injection, schedule: Q01DX009 (ip), vehicle: water): 105 % of control

SMILES: O=C1CC2(Cl)CN3c4ccccc4C(=O)CC3(Cl)CN2c2ccccc21 (centres undefined)
- T/C (dose: 12.5 mg/kg/injection, schedule: Q04DX003 (ip), vehicle: alcohol): 100 % of control and 106 % of control
- T/C (dose: 25.0 mg/kg/injection, schedule: Q04DX003 (ip), vehicle: alcohol): 99 % of control and 106 % of control
- T/C (dose: 50.0 mg/kg/injection, schedule: Q04DX003 (ip), vehicle: alcohol): 100 % of control and 108 % of control

SMILES: Nc1ncnc2c1C=C(B(O)O)B(O)N2
- T/C (dose: 6.25 mg/kg/injection, schedule: Q01DX009 (ip), vehicle: Klucel (hydroxypropylcellulose) (HPC)): 97 % of control
- T/C [7]: 99 % of control
- T/C [12]: 104 % of control

SMILES: CCOC(=O)CCCc1ccc(N=NN(C)C)cc1
- T/C (dose: 66.0 mg/kg/injection, schedule: Q04DX003 (ip), vehicle: saline with Tween-80): 118 % of control
- T/C (dose: 100.0 mg/kg/injection, schedule: Q04DX003 (ip), vehicle: saline with Tween-80): 159 % of control

SMILES: CC(=O)CS(F)(F)(F)(F)F
- T/C [8]: 105 % of control

SMILES: CCOc1nc(N)c(C(=O)c2sc(OCC)nc2N)s1
- T/C (dose: 100.0 mg/kg/injection, schedule: Q01DX001 (ip), vehicle: saline with Tween-80): 107 % of control
- T/C (dose: 200.0 mg/kg/injection, schedule: Q01DX001 (ip), vehicle: saline with Tween-80): 99 % of control
- T/C (dose: 400.0 mg/kg/injection, schedule: Q01DX001 (ip), vehicle: saline with Tween-80): 92 % of control

SMILES: c1cc(OCC2CO2)cc(OCC2CO2)c1 (centres undefined)
- T/C (dose: 3.12 mg/kg/injection, schedule: Q01DX009 (ip), vehicle: DMSO): 88 % of control
- T/C (dose: 6.25 mg/kg/injection, schedule: Q01DX009 (ip), vehicle: DMSO): 88 % of control
- T/C (dose: 12.5 mg/kg/injection, schedule: Q01DX009 (ip), vehicle: DMSO): 100 % of control
- T/C (dose: 25.0 mg/kg/injection, schedule: Q01DX009 (ip), vehicle: DMSO): 104 % of control and 96 % of control
- T/C (dose: 50.0 mg/kg/injection, schedule: Q01DX009 (ip), vehicle: DMSO): 104 % of control
- T/C (dose: 100.0 mg/kg/injection, schedule: Q01DX009 (ip), vehicle: DMSO): 95 % of control

SMILES: C1=Cc2ccccc2CS1
- T/C (dose: 25.0 mg/kg/injection, schedule: Q01DX009 (ip), vehicle: other): 106 % of control
- T/C (dose: 50.0 mg/kg/injection, schedule: Q01DX009 (ip), vehicle: other): 116 % of control
- T/C (dose: 100.0 mg/kg/injection, schedule: Q01DX009 (ip), vehicle: other): 108 % of control
- T/C (dose: 200.0 mg/kg/injection, schedule: Q01DX009 (ip), vehicle: other): 88 % of control
- T/C (dose: 400.0 mg/kg/injection, schedule: Q01DX009 (ip), vehicle: other): 88 % of control

SMILES: O=S1(=O)C2C=CC1C(Br)C(Br)CC2 (centres undefined)
- T/C [7]: 102 % of control
- T/C [12]: 100 % of control
- T/C [13]: 89 % of control
- T/C [14]: 96 % of control
- T/C [15]: 98 % of control

SMILES: COC(=O)CC(C(=O)CSC(S(=O)(=O)c1ccccc1)S(=O)(=O)c1ccccc1)C(=O)OC (centres undefined)
- T/C [1]: 99 % of control
- T/C [2]: 101 % of control
- T/C [3]: 100 % of control

SMILES: C#CCOC(=O)Nc1nc2ccc([N+](=O)[O-])cc2s1
- T/C [13]: 101 % of control
- T/C [14]: 99 % of control
- T/C [15]: 92 % of control

SMILES: OCn1nnc2ccccc21
- T/C [12]: 116 % of control
- T/C [13]: 102 % of control
- T/C [14]: 112 % of control
- T/C [15]: 106 % of control

SMILES: C=C1CC2(CC3CC2C2CCCC32)OC1=O (centres undefined)
- T/C (dose: 100.0 mg/kg/injection, schedule: Q04DX002 (ip), vehicle: saline): 100 % of control
- T/C (dose: 200.0 mg/kg/injection, schedule: Q04DX002 (ip), vehicle: saline): 94 % of control
- T/C (dose: 400.0 mg/kg/injection, schedule: Q04DX002 (ip), vehicle: saline): 98 % of control
